In patent US20240423969A1, “SYNERGISTIC DRUG COMBINATIONS TO TREAT CANCER” (Mayo Foundation for Medical Education and Research, priority 2023, published 2024):

Each compound was assayed on HCC cell lines (HLE, HLF, and PLC/PRF5) (assay: Cell proliferation assay, three HCC cell lines). Details: Homo sapiens, PLC-PRF-5, single agent, range over HLE, 96 hours, read-out: IC50 (concentration that inhibits proliferation of 50% cells).
Type: cell-based
Method: HCC cell lines (3×10^5 cells) were suspended in a 10 mL culture medium and seeded onto 96-well black plates at 100 μL per well (Corning Incorporated, Corning, NY, USA). The next day, SSI-4, cabozantinib, and/or lenvatinib were added in concentrations ranging from 120 μM to 0.1 nM and incubated with cells for 96 hours. After incubation times, the media was discarded, and cells were washed with 100 μL PBS, dried, and placed at −80° C. for at least 30 minutes. Next, a CyQUANT® Cell Proliferation Assay (Thermo Fisher, Waltham, MA) was used for quantifying cells and for assessing cell proliferation and cytotoxicity following manufacturer protocol. For 3D cell culture, the cell viability was analyzed using CellTiter-Glo® 3D Cell Viability Assay (Promega, Madison, WI), and relative luminescence units (RLU) were measured. Based, on the fluorescence or luminescence values, the percentage of cell proliferation inhibition and half-maximal inhibitory concentration (IC50) was determined using the GraphPad Prism (Dotmatics, San Diego, CA). The resulting combination index (CI) data based on the median effect principle proposed by Chou and Talalay was generated using CalcuSyn Software Version 2.0 (Biosoft). At least 3 independent experiments were performed.
Three HCC cell lines (HLE, HLF, and PLC/PRF5) were tested and the concentration that inhibits proliferation of 50% cells (IC50) was determined. […]

IC50	SMILES
11 to 24 µM	COc1cc2nccc(Oc3ccc(NC(=O)NC4CC4)c(Cl)c3)c2cc1C(N)=O [lenvatinib]
0.001 to 0.019 µM	CNC(=O)c1ccnc(NC(=O)N2CCC(Oc3ccccc3Cl)CC2)c1 [SSI-4, 2-{[4-(2-Chlorophenoxy)piperidine-1-carbonyl]amino}-N-methylpyridine-4-carboxamide]
19 to 72 µM	COc1cc2nccc(Oc3ccc(NC(=O)C4(C(=O)Nc5ccc(F)cc5)CC4)cc3)c2cc1OC [cabozantinib]
